Source: patent US20240293413A1, “COMPOUND AND METHOD FOR TREATING CHEMOTHERAPY-RELATED GASTROINTESTINAL SIDE EFFECTS” (ONQUALITY PHARMACEUTICALS CHINA LTD., priority 2021, published 2024)

Key:
Type in all cases: in vivo
[1] = test system: Chemotherapeutic agent-caused diarrhea models of Balb/c mice; assay: Examples 1-229 (Table 3): oral CDK inhibitor, relief of diarrhea caused by a chemotherapeutic agent
[2] = test system: diarrhea caused by a chemotherapeutic agent in Balb/c mice; assay: Examples 343-381 (Table 6): oral versus intravenous CDK inhibitor, relief of diarrhea caused by a chemotherapeutic agent
Outline: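 Balb/c mice (10 per group) received the CDK inhibitor orally or by tail-vein injection, or vehicle, followed by a chemotherapeutic agent or its solvent. Diarrhea grade was scored daily.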

[3] = test system: diarrhea caused by the continuous administration of a chemotherapeutic agent in Balb/c mice; assay: Examples 444-469 (Table 9): oral CDK inhibitor, diarrhea caused by continuous administration of a chemotherapeutic agent
Outline: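 Balb/c mice (n=10 per group) received the CDK inhibitor intragastrically before a chemotherapeutic agent, against solvent and chemotherapy-only groups. Diarrhea was graded 0–3 daily. Relative remission rate is the percentage of inhibitor-treated mice whose grade fell below the chemotherapy group average.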

CN1CCN(c2ccc(Nc3ncc4cc5n(c4n3)C3(CCCCC3)CNC5=O)nc2)CC1 [Trilaciclib (G1T28), Trilaciclib]
Relative remission rate (%) ([1]; Example 49, Oxaliplatin intraperitoneal injection 20 mg/kg single, CDK inhibitor oral 100 mg/kg single 0.5 h before, cycle 8 days): 60%
Relative remission rate (%) ([1]; Example 50, Oxaliplatin intraperitoneal injection 20 mg/kg single, CDK inhibitor oral 100 mg/kg single 1 h before, cycle 8 days): 50%
Relative remission rate (%) ([1]; Example 51, Oxaliplatin intraperitoneal injection 20 mg/kg single, CDK inhibitor oral 100 mg/kg single 2 h before, cycle 8 days): 40%
Relative remission rate (%) ([1]; Example 52, Oxaliplatin intraperitoneal injection 20 mg/kg single, CDK inhibitor oral 100 mg/kg single 3 h before, cycle 8 days): 60%
Relative remission rate (%) ([1]; Example 53, Oxaliplatin intraperitoneal injection 20 mg/kg single, CDK inhibitor oral 100 mg/kg single 4 h before, cycle 8 days): 50%
Relative remission rate (%) ([1]; Example 54, Oxaliplatin intraperitoneal injection 20 mg/kg single, CDK inhibitor oral 100 mg/kg single 5 h before, cycle 8 days): 30%
Relative remission rate (%) ([1]; Example 55, Oxaliplatin intraperitoneal injection 20 mg/kg single, CDK inhibitor oral 100 mg/kg single 6 h before, cycle 8 days): 80%
Relative remission rate (%) ([1]; Example 56, Oxaliplatin intraperitoneal injection 20 mg/kg single, CDK inhibitor oral 100 mg/kg single 7 h before, cycle 8 days): 60%
Relative remission rate (%) ([1]; Example 57, Oxaliplatin intraperitoneal injection 20 mg/kg single, CDK inhibitor oral 100 mg/kg single 8 h before, cycle 8 days): 60%
Relative remission rate (%) ([1]; Example 58, Oxaliplatin intraperitoneal injection 20 mg/kg single, CDK inhibitor oral 100 mg/kg single 9 h before, cycle 8 days): 80%
Relative remission rate (%) ([1]; Example 59, Oxaliplatin intraperitoneal injection 20 mg/kg single, CDK inhibitor oral 100 mg/kg single 10 h before, cycle 8 days): 70%
Relative remission rate (%) ([1]; Example 60, Oxaliplatin intraperitoneal injection 20 mg/kg single, CDK inhibitor oral 100 mg/kg single 11 h before, cycle 8 days): 70%
Relative remission rate (%) ([1]; Example 61, Oxaliplatin intraperitoneal injection 20 mg/kg single, CDK inhibitor oral 100 mg/kg single 12 h before, cycle 8 days): 50%
Relative remission rate (%) ([1]; Example 62, Oxaliplatin intraperitoneal injection 20 mg/kg single, CDK inhibitor oral 100 mg/kg single 14 h before, cycle 8 days): 60%
Relative remission rate (%) ([1]; Example 63, Oxaliplatin intraperitoneal injection 20 mg/kg single, CDK inhibitor oral 100 mg/kg single 16 h before, cycle 8 days): 80%
Relative remission rate (%) ([1]; Example 64, Oxaliplatin intraperitoneal injection 20 mg/kg single, CDK inhibitor oral 100 mg/kg single 18 h before, cycle 8 days): 80%
Relative remission rate (%) ([1]; Example 65, Oxaliplatin intraperitoneal injection 20 mg/kg single, CDK inhibitor oral 100 mg/kg single 20 h before, cycle 8 days): 70%
Relative remission rate (%) ([1]; Example 66, Oxaliplatin intraperitoneal injection 20 mg/kg single, CDK inhibitor oral 100 mg/kg single 22 h before, cycle 8 days): 50%
Relative remission rate (%) ([1]; Example 67, Oxaliplatin intraperitoneal injection 20 mg/kg single, CDK inhibitor oral 100 mg/kg single 24 h before, cycle 8 days): 50%
Relative remission rate (%) ([1]; Example 68, Oxaliplatin intraperitoneal injection 20 mg/kg single, CDK inhibitor oral 100 mg/kg single 48 h before, cycle 8 days): 0%
Relative remission rate (%) ([1]; Example 127, Irinotecan (CPT-11) intramuscular injection 240 mg/kg single, CDK inhibitor oral 50 mg/kg single 1 h before, cycle 7 days): 70%
Relative remission rate (%) ([1]; Example 170, Gemcitabine (GEM) intraperitoneal injection 120 mg/kg single, CDK inhibitor oral 60 mg/kg single 0.5 h before, cycle 8 days): 50%
Relative remission rate (%) ([1]; Example 171, Gemcitabine (GEM) intraperitoneal injection 120 mg/kg single, CDK inhibitor oral 60 mg/kg single 1 h before, cycle 8 days): 50%
Relative remission rate (%) ([1]; Example 172, Gemcitabine (GEM) intraperitoneal injection 120 mg/kg single, CDK inhibitor oral 60 mg/kg single 2 h before, cycle 8 days): 40%
Relative remission rate (%) ([1]; Example 173, Gemcitabine (GEM) intraperitoneal injection 120 mg/kg single, CDK inhibitor oral 60 mg/kg single 4 h before, cycle 8 days): 60%
Relative remission rate (%) ([1]; Example 174, Gemcitabine (GEM) intraperitoneal injection 120 mg/kg single, CDK inhibitor oral 60 mg/kg single 6 h before, cycle 8 days): 50%
Relative remission rate (%) ([1]; Example 175, Gemcitabine (GEM) intraperitoneal injection 120 mg/kg single, CDK inhibitor oral 60 mg/kg single 8 h before, cycle 8 days): 50%
Relative remission rate (%) ([1]; Example 176, Gemcitabine (GEM) intraperitoneal injection 120 mg/kg single, CDK inhibitor oral 60 mg/kg single 10 h before, cycle 8 days): 50%
Relative remission rate (%) ([1]; Example 177, Gemcitabine (GEM) intraperitoneal injection 120 mg/kg single, CDK inhibitor oral 60 mg/kg single 12 h before, cycle 8 days): 40%
Relative remission rate (%) ([1]; Example 178, Gemcitabine (GEM) intraperitoneal injection 120 mg/kg single, CDK inhibitor oral 60 mg/kg single 14 h before, cycle 8 days): 60%
Relative remission rate (%) ([1]; Example 193, Gemcitabine (GEM) oral administration 300 mg/kg single, CDK inhibitor oral 200 mg/kg single, 2 h before, 8 days): 60%
Relative remission rate (%) ([1]; Example 227, Topotecan intravenous injection 20 mg/kg single, CDK inhibitor oral 100 mg/kg single, 0.5 h before, 14 days): 70%
Relative remission rate ([2]; Example 348, Etoposide intraperitoneal injection 75 mg/kg single, CDK inhibitor intravenous injection 100 mg/kg single, 24 h before, cycle 8 days): 10%
Relative remission rate ([2]; Example 348, Etoposide intraperitoneal injection 75 mg/kg single, CDK inhibitor oral 100 mg/kg, 24 h before, cycle 8 days): 60%
Relative remission rate ([2]; Example 365, Carboplatin (CBP) intravenous injection 120 mg/kg single, CDK inhibitor intravenous injection 100 mg/kg single, 24 h before, cycle 10 days): 10%
Relative remission rate ([2]; Example 365, Carboplatin (CBP) intravenous injection 120 mg/kg single, CDK inhibitor oral 100 mg/kg single, 24 h before, cycle 10 days): 30%
Relative remission rate ([2]; Example 367, Topotecan (TP) intraperitoneal injection 10 mg/kg single, CDK inhibitor intravenous injection 200 mg/kg single, 24 h before, cycle 10 days): 10%
Relative remission rate ([2]; Example 367, Topotecan (TP) intraperitoneal injection 10 mg/kg single, CDK inhibitor oral 100 mg/kg single, 24 h before, cycle 10 days): 30%
Relative remission rate ([2]; Example 377, Gemcitabine (GEM) intramuscular injection 120 mg/kg single, CDK inhibitor intravenous injection 50 mg/kg single, 1 h before, cycle 8 days): 10%
Relative remission rate ([2]; Example 377, Gemcitabine (GEM) intramuscular injection 120 mg/kg single, CDK inhibitor oral 50 mg/kg single, 1 h before, cycle 8 days): 60%
Relative remission rate ([2]; Example 380, Gemcitabine and carboplatin intravenous injection 120 (G) 100 (C) mg/kg single, CDK inhibitor intravenous injection 100 mg/kg single, 0.5 h before, cycle 8 days): 20%
Relative remission rate ([2]; Example 380, Gemcitabine and carboplatin intravenous injection 120 (G) 100 (C) mg/kg single, CDK inhibitor oral 100 mg/kg single, 0.5 h before, cycle 8 days): 60%
Relative remission rate ([2]; Example 381, Gemcitabine and carboplatin intravenous injection 120 (G) 100 (C) mg/kg single, CDK inhibitor intravenous injection 100 mg/kg single, 24 h before, cycle 8 days): 10%
Relative remission rate ([2]; Example 381, Gemcitabine and carboplatin intravenous injection 120 (G) 100 (C) mg/kg single, CDK inhibitor oral 100 mg/kg single, 24 h before, cycle 8 days): 40%
relief of diarrhea by oral administration and injection administration ([2]; diarrhea caused by etoposide, etoposide in combination with cisplatin, carboplatin, gemcitabine, gemcitabine in combination with carboplatin, and topotecan, oral administration has the most significant effect): effectively relieve diarrhea
Relative remission rate ([3]; Examples 452-455 (one value given; 2 h, 4 h, 6 h, 8 h before), Fluorouracil (5-Fu) intraperitoneal injection 70 mg/kg once a day, for 7 days, CDK inhibitor oral 125 mg/kg once a day, for 7 days, cycle 10 days): 10%
Relative remission rate ([3]; Examples 458-461 (one value given; 2 h, 4 h, 6 h, 8 h before), Capecitabine oral administration 1000 mg/kg (printed 100/0 wrapped) once a day, for 5 days, CDK inhibitor oral 100 mg/kg once a day, for 5 days, cycle 14 days): 50%
relieving effect on diarrhea ([3]; continuous administration of fluorouracil and capecitabine for 7 days or above): not significant
relieving effect on diarrhea ([3]; continuous administration of fluorouracil for less than 7 days): significant relieving effects
